Results published in patent publication US10350147B2, “Enamel products and methods of use” (The Research Foundation for The State University of New York, priority 2014, dated 2019).
Entries after “also recorded” stand apart in the source; their conditions may differ.

Assays:
developing tooth buds = conditions: serotonin added to organotypic cultures; reversed with antagonists; cited from earlier work
[1] = tested on: oral epithelial keratinocytes of the cell line IMOK; experiment: Immunocytochemistry of marker expression in treated IMOK oral epithelial keratinocytes; assay type: cell-based, mouse
Procedure: In the studies described below, the ameloblast-like cells originated from oral epithelial keratinocytes. We employed the cell line IMOK, an immortalized oral keratinocyte cell line of mouse origin, which was a gift from Dr. Garrett-Sinha (SUNY-Buffalo; Parikh et al., Arc. Oral Biol. 53:1091-1100, 2008).
To thaw frozen IMOK cells, we removed a cryovial containing 10^6 frozen cells from liquid nitrogen storage, immediately placed it into a 37° C. water bath, and gently swirled the vial. When the cells were thawed, we transferred the vial into a laminar flow hood, and added 10 ml of pre-warmed serum free CnT-02 growth medium (CELLNTEC; FPS 1:1000 added to the medium). We centrifuged the cell suspension (˜1000 rpm for 4 minutes) then checked the vial visually for the presence of a complete pellet. The supernatant was aseptically decanted without disturbing the cell pellet, which we gently resuspended in 7 ml of CnT-02 medium. We transferred the resuspended cells into a T25 flask and incubated it at 37° C. with a humidified atmosphere of 5% CO2 The medium was changed every other day, and when the cells became 90% confluent, we split them 1:5 and plated them in a 12-well plate as follows. After discarding the culture medium from the flask, we washed the cells with PBS then added 2 mL of a pre-warmed dissociation reagent (TrypLE; GIBCO), gently shaking the flask to completely cover the cell layer. We transferred the flask to the incubator (37° C., 5% CO2) for 20 minutes, checking under a microscope every 5 minutes for dissociation of the cells. When ≥90% of the cells detached, we added 8 ml of pre-warmed CnT-02 growth medium (CELLNTEC), dispersing it with a pipette over the cell layer surface several times. The cell suspension was transferred to a 50 ml conical tubed and centrifuged (1000 rpm for 4 minutes). We resuspended the cell pellet in 5 ml of pre-warmed serum free CnT-02 growth medium (CELLNTEC) and split the cells in 1:5 ratios. We diluted the cell suspension plate and pipetted the appropriate volume into new 12-well plates, returning the cells to the incubator (37° C., 5% CO2).
We added the vehicle (4 mM HCl+1 mg/mL BSA) to the control side and TGFβ1 (5 ng/mL) to the experimental side and mixed gently. We changed the medium every other day for 10 days. To fix the cells, we aspirated the medium, washed the cells with PBS then fixed them with 100% methanol for 20 minutes. Following fixation, we washed the fixed cells with PBS (×3) and stored them at 4° C.
Immunocytochemistry General Protocol: (1) wash sample slide in 0.15 M PBS (pH 7.2; 4×5 minutes); (2) incubate in 4% Normal Goat Serum (NGS) for 20 minutes (2 ml of 0.15 M PBS+80 μL NGS); (3) incubate with the primary antibody solution (details below; 90 minutes); (4) wash with […] (3 times×10 minutes); (5) block with 4% NGS in 0.15 M PBS (20 minutes); (6) incubate with the secondary antibody (Biotin-SP-conjugated goat anti-rabbit IgG; 60 minutes); (7) wash with 0.15 M PBS (3 times×10 minutes); (8) prepare and incubate in ABC solution (details below; 60 minutes (5 mL of 0.15 M PBS+ABC solution 600 μL); (9) wash with 0.1 M AI buffer (175 mM sodium acetate and 10 mM imidazole, pH 7.2) for 3 times×10 minutes [14.35 g sodium acetate, 0.68 g imidazole in 1000 mL H2O]; (10) carry out DAB reaction for 5-20 minutes, checking often; and (11) wash for 15 minutes in 0.05 M PBS with 0.04% TritonX-100 to stop the reaction.
The primary antibody solution contains 0.15 M PBS with 0.5% Triton X-100; 4% NGS in [0.15 M PBS with 0.5% TritonX-100; and the primary antibody at a 1:500 dilution (2 mL PBS+0.04% Tx 100+80 μL NGS+4 μL primary antibody). The secondary antibody solution contains 0.15 M PBS with 0.5% Triton X-100 and the secondary antibody at a 1:2500 dilution (Goat anti Rabbit IgG) [2 ml PBS+0.04% Tx 100+0.8 uL GαR]. To prepare the ABC (Avidin Biotin Complex) solution, add 1 drop of A, 1 drop of B, to 500 μL of 0.15 M PBS in an Eppendrof tube. […]

[2] = IMOK cells before and after TGFβ1 treatment
[3] = IMOK cells, TGFβ1 5 ng/ml, 10 days, immunocytochemistry

Compound	effect on tooth development (developing tooth buds)	amelogenin induction at 10 μM serotonin ([1]; 10 μM serotonin for 10 days)	amelogenin expression after serotonin treatment ([1]; IMOK cells pre-treated with TGFβ1, then further treated with serotonin)	Oct4 expression [1, 2]	collagen1 expression [1, 2]	amelogenin expression after TGFβ1 treatment alone ([1]; IMOK cells before and after TGFβ1 treatment, no serotonin)	E-cadherin expression [1, 3]	N-cadherin expression [1, 3]	cell morphology after treatment ([1]; IMOK cells, TGFβ1 treatment versus confluent control)
NCCc1c[nH]c2ccc(O)cc12 [serotonin, reference compound]	accelerated tooth development	induction of amelogenin	induction of amelogenin expression; also recorded: express amelogenin	–	–	–	–	–	–
TGFβ1: recombinant human transforming growth factor β1 (R&D system) used as dedifferentiation agent	–	–	–	acquire the expression of Oct4	lose the expression of collagen1	do not express amelogenin	lost and reduction in E-cadherin expression and loss of E-cadherin expression	gained; also recorded: increase in N-cadherin expression; also recorded: induced	cells enlarge in size, separate and spread out
